pEC50: −log10 of the molar value.
Legend:
ΔF508-CFTR [1] = biological target: T1, ΔF508-CFTR (Homo sapiens, UniProt P13569, DEL508-508); assay: CFTR cell surface levels using HRP-tagged ΔF508-CFTR expressing CFBE cells, intrinsic corrector capacity; format: cell-based; parameters: % Activation: concentration or dose not given beside the values; conditions: HRP-tagged ΔF508-CFTR expressing CFBE41o- cells; compounds alone (intrinsic corrector capacity); 20 hours at 33° C.
T1 construct: host or cells: CFBE41o- cells, doxycycline-inducible expression
T1 sequence (P13569 with tags, fused parts or gaps DEL508-508): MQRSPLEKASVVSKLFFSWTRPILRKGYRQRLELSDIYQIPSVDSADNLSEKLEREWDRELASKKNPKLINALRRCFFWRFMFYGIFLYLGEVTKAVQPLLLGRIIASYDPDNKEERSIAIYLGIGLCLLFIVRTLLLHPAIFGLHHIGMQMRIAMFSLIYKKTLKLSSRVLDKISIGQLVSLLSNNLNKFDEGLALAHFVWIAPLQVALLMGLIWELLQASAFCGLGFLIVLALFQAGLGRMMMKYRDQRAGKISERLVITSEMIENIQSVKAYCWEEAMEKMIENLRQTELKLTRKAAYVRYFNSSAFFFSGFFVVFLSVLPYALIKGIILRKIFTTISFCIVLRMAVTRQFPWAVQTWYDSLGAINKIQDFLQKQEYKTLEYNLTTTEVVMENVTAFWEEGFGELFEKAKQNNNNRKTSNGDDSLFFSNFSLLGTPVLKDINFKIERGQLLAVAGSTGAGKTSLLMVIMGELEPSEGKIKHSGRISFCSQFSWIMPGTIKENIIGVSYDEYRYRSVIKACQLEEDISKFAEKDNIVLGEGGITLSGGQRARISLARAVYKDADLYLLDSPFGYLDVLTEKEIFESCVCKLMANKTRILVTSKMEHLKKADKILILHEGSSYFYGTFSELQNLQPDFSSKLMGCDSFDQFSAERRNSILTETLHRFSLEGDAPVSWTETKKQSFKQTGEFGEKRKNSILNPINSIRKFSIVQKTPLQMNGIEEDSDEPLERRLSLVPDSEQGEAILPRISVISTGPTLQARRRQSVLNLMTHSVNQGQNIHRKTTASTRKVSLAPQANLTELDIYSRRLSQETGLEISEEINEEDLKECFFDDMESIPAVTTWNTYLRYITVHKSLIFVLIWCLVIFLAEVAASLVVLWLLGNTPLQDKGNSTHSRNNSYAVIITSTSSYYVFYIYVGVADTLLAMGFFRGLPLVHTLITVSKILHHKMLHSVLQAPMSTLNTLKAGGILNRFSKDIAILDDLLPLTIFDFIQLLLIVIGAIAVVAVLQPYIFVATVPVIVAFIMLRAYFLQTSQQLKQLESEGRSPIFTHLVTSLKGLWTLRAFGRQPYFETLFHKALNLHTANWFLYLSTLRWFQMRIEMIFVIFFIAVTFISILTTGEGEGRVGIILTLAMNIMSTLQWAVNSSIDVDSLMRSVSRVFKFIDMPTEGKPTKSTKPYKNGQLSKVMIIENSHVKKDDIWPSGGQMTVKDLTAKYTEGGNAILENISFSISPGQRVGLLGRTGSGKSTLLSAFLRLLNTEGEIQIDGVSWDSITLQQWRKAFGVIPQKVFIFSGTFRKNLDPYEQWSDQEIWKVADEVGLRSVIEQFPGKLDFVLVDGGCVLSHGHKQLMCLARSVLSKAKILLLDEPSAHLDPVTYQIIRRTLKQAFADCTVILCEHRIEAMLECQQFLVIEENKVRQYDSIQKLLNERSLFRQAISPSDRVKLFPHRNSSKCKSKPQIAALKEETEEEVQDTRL
Description: (§1) Measuring CFTR Cell Surface Levels Using HRP-Tagged ΔF508-CFTR Expressing CFBE Cells
(§2) The HRP-tagged ΔF508-CFTR cell assay measures the expression of CFTR-ΔF508 at the plasma membrane. CFTR-ΔF508 has a folding defect leading to absence of protein at the plasma membrane. This assay is used to evaluate the capacity of compounds to increase the expression of CFTR-ΔF508 at the plasma membrane. […] When HRP-tagged ΔF508-CFTR is present at the plasma membrane, the HRP enzyme activity can be measured. The amount of CFTR-ΔF508 that can be rescued to the plasma membrane is correlated with the amount of functional enzyme that can be measured.
(§3) There are several ways to measure the capacity of compounds to rescue CFTR-ΔF508 to the plasma membrane; either compounds are evaluated on their own and the impact on plasma membrane levels is measured or compounds are evaluated in combination with a co-corrector, i.e. a compound that rescues CFTR-ΔF508 to the plasma membrane but rescue can be enhanced by addition of compounds due to a complementary mode of action.
Activity of Compounds for their Intrinsic Corrector Capacity:
On day four, L test compounds diluted in PBS were added to the plates at a final DMSO concentration of 0.1%. All compound plates contained negative controls (DMSO) and positive controls ([…] corrector, 3-[(2R,4R)-4-({[1-(2,2-difluoro-1,3-benzodioxol-5-yl)cyclopropyl]carbonyl}amino)-7-methoxy-3,4-dihydro-2H-chromen-2-yl]benzoic acid). Cell plates were incubated at 33° C., 5% CO2 for 20 hours. […] After incubation for 15 minutes in the dark, chemiluminescence was measured using a plate reader (EnVision®, Perkin Elmer). Raw data were normalized to percentage activity values using the equation: 100×(Sample−Negative control)/(Positive control−Negative Control).

ΔF508-CFTR [2] = biological target: T1, ΔF508-CFTR; assay: CFTR cell surface levels using HRP-tagged ΔF508-CFTR expressing CFBE cells, in the presence of a co-corrector; format: cell-based; conditions: HRP-tagged ΔF508-CFTR CFBE41o- cells, with 3 μM co-corrector; for % Activation: positive control 3 μM co-corrector
Description: as §1, §2, §3
Activity of Compounds in Combination with Co-Corrector:
On day four, 10 μL of test compounds diluted in PBS (phosphate buffered saline) were added to the plates at a final DMSO concentration of 0.1%. In order to measure compound synergy with a co-corrector, 3 μM co-corrector (3-[(2R,4R)-4-({[1-(2,2-difluoro-1,3-benzodioxol-5-yl)cyclopropyl]carbonyl}amino)-7-methoxy-3,4-dihydro-2H-chromen-2-yl]benzoic acid) was added along with test compounds. All compound plates contained negative controls (DMSO) and positive controls (3 μM co-corrector). Cell plates were incubated at 33° C., 5% CO2 for 20 hours. […] After incubation for 15 minutes in the dark, the chemiluminescence was measured using a plate reader (EnVision®, Perkin Elmer). Raw data were normalized to percentage activity values using the equation: 100×(Sample−Negative control)/(Positive control−Negative Control).

SMILES	% Activation (ΔF508-CFTR [1]) [%]	pEC50 (ΔF508-CFTR [2])	further results
CC(C)Oc1nn(C2CCCCC2)c2nc(C(=O)NS(C)(=O)=O)cc(-c3ccc(C4(C#N)CCN(C)CC4)cc3)c12 [compound 639]	238.35	7.13	pEC50 (ΔF508-CFTR [1]): 6.88; % Activation (ΔF508-CFTR [2]): 464.55%
CC(c1ccc(-c2cc(C(=O)NS(=O)(=O)N(C)C)nc3c2c(C2CCC2)nn3C2CCCCC2)cc1)N1CCOCC1 (stereo not drawn) [compound 543]	–	7.41	–
CS(=O)(=O)NC(=O)c1cc(OCCCN2CCCCC2)c2c(C3CCC3)nn(-c3ccccc3)c2n1 [compound 314]	–	6.16	–
CC(C)Oc1nn(C2CCCCC2)c2nc(C(=O)NS(=O)(=O)N(C)C)cc(-c3ccc(CN4CCOCC4)cc3)c12 [compound 406]	160.8	–	–
Cc1nn(C2CCCCC2)c2nc(C(=O)NS(C)(=O)=O)cc(-c3ccc(N4CCOCC4)nc3)c12 [compound 47]	–	5.79	–
COCCS(=O)(=O)NC(=O)c1cc(N2CCC(N3CCOCC3)CC2)c2c(C3CCC3)nn(-c3ccc(F)cc3)c2n1 [compound 407]	125.95	–	–
CN(C)S(=O)(=O)NC(=O)c1cc(N2CCC(N3CCC(C#N)C3)CC2)c2c(C3CCC3)nn(-c3ccc(F)cc3)c2n1 (stereo not drawn) [compound 561]	–	7.38	–
CN(C)S(=O)(=O)NC(=O)c1cc(C2CCN(CCC(F)(F)F)CC2)c2c(C3CCC3)nn(-c3ccc(F)cc3)c2n1 [compound 604]	–	–	% Activation (ΔF508-CFTR [2]): 269.3%
CN1CCN(Cc2cc(C(=O)NS(C)(=O)=O)nc3c2c(C2CCC2)nn3-c2ccc(F)cc2)CC1 [compound 518]	–	–	pEC50 (ΔF508-CFTR [1]): 5.00
